Assay results as given in patent US6472396B1, “Barbituric acid derivatives, processes for their production and pharmaceutical agents containing these compounds” (Roche Diagnostics GmbH, priority 1995, dated 2002).

target: T1, MMP-8 (Homo sapiens, UniProt P22894); assay: Inhibition of MMPs (HNC catalytic domain), fluorogenic heptapeptide substrate DNP-Pro-Leu-Gly-Leu-Trp-Ala-D-Arg-NH2; assay type: biochemical; conditions: not given
T1 construct: catalytic domain (Met80-Gly242) of human neutrophil collagenase; made in house
T1 sequence (P22894 100-262 limits assumed): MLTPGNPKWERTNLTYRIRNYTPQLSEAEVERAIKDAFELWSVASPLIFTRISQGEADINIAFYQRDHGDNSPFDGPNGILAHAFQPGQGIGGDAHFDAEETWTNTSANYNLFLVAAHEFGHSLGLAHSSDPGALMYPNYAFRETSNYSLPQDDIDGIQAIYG
Procedure: In order to determine the inhibition of MMPs, for example HNC, the catalytic domain (isolation and purification see for example Schnierer, S., Kleine, T., Gote, T., Hillemann, A., Knäuper, V., Tschesche, H., Biochem. Biophys. Res. Commun. (1993) 191, 319-326) is incubated with inhibitors having various concentrations. Subsequently, the initial reaction rate in the conversion of a standard substrate is measured in a manner analogous to Grams F. et al., FEBS 335 (1993) 76-80).
The results are evaluated by plotting the reciprocal reaction rate against the concentration of the inhibitor. The inhibition constant (Ki) is obtained as the negative section of the abscissis by the graphical method according to Dixon, M., Biochem. J. (1953) 55, 170-202.
The synthetic collagenase substrate is a heptapeptide which is coupled, at the […], with DNP (dinitrophenol). Said DNP residue quenches by steric hindrance the fluorescence of the adjacent tryptophane of the heptapeptide. After cleavage of a tripeptide which includes the DNP group, the tryptophane fluorescence increases. The proteolytic cleavage of the substrate therefore can be measured by the fluorescence value.
The assay was performed at 25° C. in a freshly prepared 50 mM Tris buffer (pH 8.0) treated with dithiozone to remove traces of heavy metals. 4 mM CaCl2 was added and the buffer saturated wtih argon. Stock solutions of adamalysin II were prepared by centrifugation of the protein from an ammonium sulfate suspension and subsequent dissolution in the assay buffer. Stock solutions of collagenase were diluted with the assay buffer. Enzyme concentrations were determined by uv measurements (ε280=2.8 10^4 M1 cm^−1, ε288: 2.2 10^4 M^−1 cm^−1) and the stock solutions were stored in the cold. This solution was diluted 1:100 to obtain the final 16 nM assay concentration. The fluorogenic substrate DNP-ProLeu-Gly-LeuTrp-Ala-D-Arg-NH2 with a Km of 52 μM was used at a concentration of 21.4 μM; for the Ki determination a 12.8 μM concentration has also been used. Substrate fluorescence was measured at an excitation and emission wavelength of λ=320 and 420 nm, respectively, on a spectrofluorimeter (Perkin Elmer, Model 650-40) equipped with a thermostated cell holder. Substrate hydrolysis was monitored for 10 min. immediately after adding the enzyme. All reactions were performed at least in triplicate. The Ki values—of the inhibitors were calculated from the intersection point of the straight lines obtained by the plots of vo/vi vs. [concentration of inhibitor], whereas IC50 values were calculated from plots of vi/vo [concentration of inhibitor] by non-linear regression with simple robust weighting.
50 mM Tris/HCl pH 7.6 (Tris=Tris-(hydroxymethyl)-aminomethan)
100 mM NaCl/10 mM CaCl 2/5% MeOH (ff necessary)
Enzyme: 8 nM catalytic domain (Met80-Gly242) of human neutrophil collagenase
Substrate: 10 microM DNP-Pro-Leu-Gly-Leu-Trp-Ala-D-Arg-NH2
A solution of the enzyme and inhibitor in assay buffer (25° C.) was prepared. The reaction was started directly by giving the substrate into the solution. The cleavage of the flourogenic substrate was followed by flourescence spectroscopy with an excitation and emision wavelength of 280 and 350 nm, respectively. The IC50 value was calculated as the inhibitor concentration, which is necessary to decrease the velocity of the reaction to the half in comparison to the reaction without inhibitor.

**Q.** Which IC50 does the source give for `O=C1NC(=O)C(c2ccccc2)(N2CCN(c3ccc([N+](=O)[O-])cc3)CC2)C(=O)N1` [example 32.77, 5-[4-(4-Nitro-phenyl)-piperazin-1-yl)-5-phenyl-pyrimidine-2,4,6-trione] here?
**A.** 160 nM

**Q.** With `O=C1NC(=O)C(c2ccccc2)(N(Cc2ccccc2)C(=O)Cc2cccc(Br)c2)C(=O)N1` [preferred no. 120, N-Benzyl-2-(3-bromo-phenyl)-N-(2,4,6-trioxo-5-phenyl-hexahydro-pyrimidin-5-yl)-acetamide] as the compound, how does the IC50 read?
**A.** 150 nM

same assay, conditions: MMP-8 (catalytic domain of human neutrophil collagenase), 25° C.; read-out: IC-50

**Q.** Which IC50 does the source give for “5-Octyl-5-[N-(2-hydroxyethyl)piperazinyl]barbituric Acid [example 23]” here?
**A.** 110 nM

**Q.** With “5-[N-(2-Hydroxyethyl)piperazinyl]-5-(4-hydroxyphenyl)barbituric Acid [example 20]” as the compound, how does the IC50 read?
**A.** 860 nM

**Q.** How did the IC50 turn out when `CCCCCCCCC1(N2CCN(c3ccc([N+](=O)[O-])cc3)CC2)C(=O)NC(=O)NC1=O` [preferred no. 118] was run?
**A.** 60 nM

**Q.** With `O=C1NC(=O)C(NC(=O)c2cccc3c2C(=O)c2ccccc2-3)(c2ccccc2)C(=O)N1` [example 32.74, 9-Oxo-9H-fluorene-1-carboxylic acid (2,4,6-trioxo-5-phenyl-hexadro-pyrimidin-5-yl)-amide] as the compound, how does the IC50 read?
**A.** 890 nM

**Q.** `O=C1NC(=O)C(c2ccc(-c3ccccc3)cc2)(N2CCN(c3ccc([N+](=O)[O-])cc3)CC2)C(=O)N1` [example 26, 5-(4′-Biphenyl)-5-[N-(4-nitrophenyl)piperazinyl]barbituric Acid] was tested. Which IC50 did it give?
**A.** 15 nM

**Q.** How did the IC50 turn out when “5-Decyl-5-[N-(2-hydroxyethyl)piperazinyl]barbituric Acid [example 28]” was run?
**A.** 320 nM
